Measured values reported in ChEMBL document CHEMBL4616674, “Fragment-based Differential Targeting of PPI Stabilizer Interfaces” (J Med Chem, 2020).
Active and inactive are the calls of the source. The calls are words filed in the database; no cut-off is given here.

Tests used:
[1] = target: T1, 14-3-3 protein sigma (Homo sapiens) (UniProt P31947); assay: Binding affinity to 6x-His tagged 14-3-3-sigma (unknown origin) expressed in Escherichia coli BL21 (DE3) in presence of acetylated p53pT387 peptide by crystallography
T1 sequence (whole entry): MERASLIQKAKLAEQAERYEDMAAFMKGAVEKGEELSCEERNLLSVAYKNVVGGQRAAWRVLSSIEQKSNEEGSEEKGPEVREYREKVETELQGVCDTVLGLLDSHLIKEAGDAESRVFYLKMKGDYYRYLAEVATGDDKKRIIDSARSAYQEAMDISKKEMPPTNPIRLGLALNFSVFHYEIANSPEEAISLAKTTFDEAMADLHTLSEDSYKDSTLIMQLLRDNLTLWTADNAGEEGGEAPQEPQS

[2] = target: T1, 14-3-3 protein sigma (Homo sapiens); assay: Binding affinity to 6x-His tagged 14-3-3-sigma (unknown origin) expressed in Escherichia coli BL21 (DE3) at 500 uM in presence of p53pT387 peptide by WaterLOGSY NMR spectroscopy
[3] = target: T1, 14-3-3 protein sigma (Homo sapiens); assay: Binding affinity to 15N2H labeled and 6x-His tagged 14-3-3-sigma (unknown origin) expressed in Escherichia coli assessed as induction of broadening (intensity decrease) and chemical shift value perturbation at 2000 uM in presence of p53pT387 peptide by 1H-15N TROSY-HSQC NMR spectroscopy
[4] = target: T1, 14-3-3 protein sigma (Homo sapiens); assay: Binding affinity to 6x-His tagged 14-3-3-sigma (unknown origin) expressed in Escherichia coli at 1 mM by SPR assay
[5] = target: T1, 14-3-3 protein sigma (Homo sapiens); assay: Binding affinity to 6x-His tagged 14-3-3-sigma (unknown origin) expressed in Escherichia coli at 1 mM by fluorescence polarization assay
[6] = target: T1, 14-3-3 protein sigma (Homo sapiens); assay: Binding affinity to 15N2H labeled and 6x-His tagged 14-3-3-sigma (unknown origin) expressed in Escherichia coli assessed as induction of broadening (intensity decrease) and chemical shift value perturbation at 2000 uM in absence of p53pT387 peptide by 1H-15N TROSY-HSQC NMR spectroscopy

Compound: CC(CN)Nc1cc(CS)cc2sc(C(=N)N)cc12 (stereo not drawn)
- Activity [1]: Active

Compound: CC(CN)Nc1cccc2cc(C(=N)N)sc12 (stereo not drawn)
- Activity [1]: Active

Compound: N=C(N)c1cc(-c2ccccc2)c(-c2c[nH]cn2)s1
- Activity [1]: Active

Compound: CC(C)Oc1ccc(C(=O)NCCN)c2cc(C(=N)N)sc12
- Activity [2]: Active
- Activity [3]: Active
- Activity [4]: Active
- Activity [5]: Active
- Activity [6]: Active
